This is an account of results in US20070254911A1, “Tetrahydro-Pyrazolo[3,4-c]Pyridine Cannabinoid Modulators” (priority 2006, published 2007).

Usually inhibition stands for the drop in the measured response relative to a control, in per cent. One may read the IC50 as the point on the concentration scale where inhibition reaches its midpoint.

In one experiment the target is T1, human CB2 receptor (Homo sapiens, UniProt P34972).
T1 construct: expressed in transfected cells; host or cells: SK-N-MC cells, stably transfected with pcDNA3 CB-2 (human); semi-purified membrane pellet
T1 sequence (P34972 whole entry): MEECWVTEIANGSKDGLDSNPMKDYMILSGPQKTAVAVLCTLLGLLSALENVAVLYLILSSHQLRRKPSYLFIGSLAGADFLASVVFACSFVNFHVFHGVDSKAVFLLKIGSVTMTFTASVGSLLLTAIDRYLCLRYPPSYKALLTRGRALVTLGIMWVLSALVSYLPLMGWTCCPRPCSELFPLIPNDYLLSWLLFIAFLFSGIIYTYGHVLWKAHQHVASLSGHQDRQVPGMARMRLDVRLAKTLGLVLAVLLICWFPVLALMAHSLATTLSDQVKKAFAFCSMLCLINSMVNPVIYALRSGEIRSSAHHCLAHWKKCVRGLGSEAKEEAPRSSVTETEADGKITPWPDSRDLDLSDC
The experiment in a line: Binding assay for CB2, radioligand [3H]-CP-55,940 displacement on membranes of transfected SK-N-MC cells. To be noted: test concentration of 0.2 μM; human CB2 in SK-N-MC membranes; read-out: Cannabinoid CB2 Receptor Binding Inhibition (%). On the procedure:
(§1) Binding Assay for CB1 or CB2 Agonists or Inverse Agonists
(§2) The human CB1 and CB2 receptors were stably expressed in SK-N-MC cells transfected with pcDNA3 CB-1 (human) or pcDNA3 CB-2 (human). The cells were grown in T-180 cell culture flasks under standard cell culture conditions at 37° C. in a 5% CO2 atmosphere. The cells were harvested by trysinization and homogenized in a homogenization buffer (10 mM Tris, 0.2 mM MgCl2, 5 mM KCl, with protease inhibitors aprotinin, leupeptin, pepstatin A and bacitracin) and centrifuged (2000 g). The supernatant was then centrifuged in 2M sucrose (31,300 g) to produce a semi-purified membrane pellet. The pellet was resuspended in homogenization and stored at −80° C.
(§3) On the day of the assay, the pellet was thawed on ice and diluted in assay buffer (50 mM Tris-HCl, 5 mM MgCl2, 2.5 mM EDTA, 0.5 mg/mL fatty acid free bovine serum albumin, pH 7.5). The diluted membrane pellet was added with buffer, either a test compound or vehicle standard and a the radioligand [H]^3+-CP-55,940 (0.2 nM) to the wells of a 96-well polypropylene plate. Non-specific binding was measured in wells containing WIN 55,212 (10 uM). The plate was covered and incubated for 90 minutes at 30° C. The contents were then aspirated onto a Packard Unifilter GF/C filter bottom plate prewet with 0.5% polyethyleneimine. The wells of the polypropylene plate were rinsed and aspirated seven times with a 0.9% saline-0.5% Tween 20 solution. The Unifilter plate was dried, a scintillation cocktail was added to each well and the counts representing binding were quantitated in a TopCount scintillation counter.
(§4) For compounds tested, an IC50 binding value was obtained from percent inhibition studies in which various test concentrations were used. The binding value (in μM) was calculated by linear regression.
(§5) For compounds without an IC50 binding value, the percent inhibition (%) was obtained at a test concentration of 0.2 μM.

Another experiment concerns the target T2, human CB1 receptor (Homo sapiens, UniProt P21554).
T2 construct: expressed in transfected cells; host or cells: SK-N-MC cells, stably transfected with pcDNA3 CB-1 (human); semi-purified membrane pellet
Nature of the experiment: Binding assay for CB1, radioligand [3H]-CP-55,940 displacement on membranes of transfected SK-N-MC cells. The conditions noted are these: for IC50: human CB1 in SK-N-MC membranes, [3H]-CP-55,940 0.2 nM, calculated by linear regression, read-out: Cannabinoid CB1 Receptor Binding IC50. How it is done: as §1, §2, §3, §4, §5

T2 sequence (P21554 whole entry): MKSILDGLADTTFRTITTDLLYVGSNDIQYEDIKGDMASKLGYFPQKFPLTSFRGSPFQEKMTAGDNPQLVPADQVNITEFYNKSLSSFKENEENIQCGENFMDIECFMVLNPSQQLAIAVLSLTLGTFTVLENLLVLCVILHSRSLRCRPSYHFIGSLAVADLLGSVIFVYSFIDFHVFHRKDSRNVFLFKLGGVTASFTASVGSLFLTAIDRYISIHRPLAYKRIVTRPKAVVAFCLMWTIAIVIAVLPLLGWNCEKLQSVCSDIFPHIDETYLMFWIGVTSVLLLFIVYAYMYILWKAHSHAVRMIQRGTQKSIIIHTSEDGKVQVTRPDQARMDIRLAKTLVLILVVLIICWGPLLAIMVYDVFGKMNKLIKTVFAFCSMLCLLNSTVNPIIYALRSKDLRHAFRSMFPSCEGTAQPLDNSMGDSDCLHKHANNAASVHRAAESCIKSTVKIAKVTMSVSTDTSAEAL

On to `C[C@@H](NC(=O)c1nn(-c2ccc(Cl)cc2Cl)c2c1CCN(C(=O)OC(C)(C)C)/C2=C/c1ccc(F)cc1)c1ccccc1` [Cpd 1, (7E)-1-(2,4-dichloro-phenyl)-7-(4-fluoro-benzylidene)-3-[(1R)-1-phenyl-ethylcarbamoyl]-1,4,5,7-tetrahydro-pyrazolo[3,4-c]pyridine-6-carboxylic acid tert-butyl ester], for which the inhibition at 0.2 µM on human CB2 receptor was found to be 35%. In addition, the IC50 at human CB1 receptor was 10 nM.
`CC(NC(=O)c1nn(-c2ccc(Cl)cc2Cl)c2c1CCN(C(=O)OC(C)(C)C)/C2=C/c1ccc(F)cc1)c1ccccn1` (stereo not shown) [Cpd 2, (7E)-1-(2,4-dichloro-phenyl)-7-(4-fluoro-benzylidene)-3-(1-pyridin-2-yl-ethylcarbamoyl)-1,4,5,7-tetrahydro-pyrazolo[3,4-c]pyridine-6-carboxylic acid tert-butyl ester]: at human CB2 receptor, the inhibition at 0.2 µM was found to be 13%. Besides, the IC50 at human CB1 receptor is 48 nM.
For the molecule `CC(C)(C)OC(=O)N1CCc2c(C(=O)NN3CCCCC3)nn(-c3ccc(Cl)cc3Cl)c2/C1=C\c1ccc(F)cc1` [Cpd 3, (7E)-1-(2,4-dichloro-phenyl)-7-(4-fluoro-benzylidene)-3-(piperidin-1-ylcarbamoyl)-1,4,5,7-tetrahydro-pyrazolo[3,4-c]pyridine-6-carboxylic acid tert-butyl ester], the inhibition at 0.2 µM on human CB2 receptor is 13%. In addition, the IC50 on human CB1 receptor was 12 nM.
Take `CC(C)(C)OC(=O)N1CCc2c(C(=O)N3CCCCC3)nn(-c3ccc(Cl)cc3Cl)c2/C1=C\c1ccc(F)cc1` [Cpd 4, (7E)-1-(2,4-dichloro-phenyl)-7-(4-fluoro-benzylidene)-3-(piperidine-1-carbonyl)-1,4,5,7-tetrahydro-pyrazolo[3,4-c]pyridine-6-carboxylic acid tert-butyl ester]: the inhibition at 0.2 µM on human CB2 receptor came to 18%; on human CB1 receptor (test concentration of 0.2 μM, for compounds without an IC50 binding value, read-out: Cannabinoid CB1 Receptor Binding percent inhibition), 39%.
Regarding `COC(=O)N1CCc2c(C(=O)NC(C)c3ccccn3)nn(-c3ccc(Cl)cc3Cl)c2/C1=C\c1ccc(F)cc1` (stereo not shown) [Cpd 5, (7E)-1-(2,4-dichloro-phenyl)-7-(4-fluoro-benzylidene)-3-(1-pyridin-2-yl-ethylcarbamoyl)-1,4,5,7-tetrahydro-pyrazolo[3,4-c]pyridine-6-carboxylic acid methyl ester], the inhibition at 0.2 µM at human CB2 receptor amounted to 17%. Also, on human CB1 receptor, the IC50 was 33 nM.
